Experimental data reported in ChEMBL document CHEMBL2062404, “Purification and antiradical properties of the structural unit of betalains” (J Nat Prod, 2012).
Activity calls are given as the source filed them. No cut-off for these calls is given here.

Experiments:
Format in all cases: functional
[1] = Antioxidant activity against ABTS radical assessed as trolox equivalent after 24 hr at pH 7
[2] = Antioxidant activity against ABTS radical assessed as trolox equivalent at 50 uM after 24 hr at pH 5.5
[3] = Antioxidant activity against ABTS radical assessed as trolox equivalent at 50 uM after 24 hr at pH >5.5
[4] = Antioxidant activity assessed as ferric ion reduction by 2,4,6-tris(2- pyridyl)-s-triazine-based spectrophotometry

Oc1ccc(/C=C/c2cc(O)cc(O)c2)cc1
Activity [1]: 2.7 equiv

O=C/C=C1/C=C(C(=O)O)N[C@H](C(=O)O)C1
Activity [2]: inactive | Activity [3]: Active | Activity [4]: Active | Activity [1]: 2.7 equiv
